This data set relates to RAW 264.7 macrophages. Briefly: Cytotoxicity assay (MTT). It counts as cell-based, murine. The note with it: 48 h; for % Viability, Exp.1: replicate Exp.1; for % Viability, Exp.2: replicate Exp.2. On the procedure:
The murine macrophage cell line RAW264.7 (TIB-71) was obtained from American Type Culture Collection (ATCC; Manassas, VA, USA). RAW 264.7 cells were cultured in DMEM (HyClone^TM, Logan, UT, USA) supplemented with 10% (v/v) heat-inactivated fetal bovine serum (Gibco, Fisher Scientific, Göteborg, Sweden), 2 mM L-glutamine (PAA Laboratories GmbH, Pasching, Austria), 10 mM 4-(2-hydroxyethyl)-1-piperazineethanesulfonic acid (HyClone^TM, Logan, UT, USA), 100 U/mL penicillin, and 100 µg/mL streptomycin (PAA). RAW 264.7 cells were grown in a 5% CO2 at 37 °C.
The cytotoxic effect of the IsCT-Δ6-8 peptide was assessed using the tetrazolium-based 3-(4,5-dimethylthiazol-2-yl)-2,5-diphenyltetrazolium bromide (MTT) assay. RAW 264.7 cells at 3.5 × 10^5 cells were seeded in a 96-well microtiter plate and incubated at 37 °C for 1 h under 5% CO2. Then, the cells were treated with or without the IsCT-Δ6-8 peptide at concentrations ranging from 37.5 μM to 150 μM for 48 h at 37 °C under 5% CO2. After incubation, 20 µL of MTT (5 mg/mL) was added in each well, and the plate was incubated for another 3 h. The supernatant was then discarded, and 100 µL of DMSO was added to solubilize formazan crystals. The plate was subsequently read at OD540 nm using a BioTek Synergy HT microplate reader. The percent cell viability was calculated using the following equation:(2) % Cell viability=OD of treated cells/OD of untreated cells×100

Where no end group is shown, it is not given here.

The values that follow come from paper PMC11352108, “Anti-Biofilm and Anti-Inflammatory Properties of the Truncated Analogs of the Scorpion Venom-Derived Peptide IsCT against Pseudomonas aeruginosa” (Antibiotics, 2024).

For the sequence ILGKIIKSLF [IsCT-Δ6-8], the “% Viability, Exp.1” value (37.5 µM, 37 °C, 5% CO2, MTT, OD 540 nm) stood at 109.403%; the “% Viability, Exp.1” value (75 µM, MTT) amounted to 102.742%; the “% Viability, Exp.1” value (150 µM, MTT) was 94.479%. For the same sequence, the “% Viability, Exp.2” value reads like this: (37.5 µM, MTT) 94.438%; (75 µM, MTT) 96.302%; (150 µM, MTT) 100.171%. The “Viability of RAW 264.7 macrophages (in words)” value (37.5–150 μM, MTT, compared with untreated control) was “not significantly changed”.
